We go through 28 molecules from patent US20250282728A1, “NITROGEN COMPRISING HETEROCYCLIC DERIVATIVES FOR THE TREATMENT OF DISORDERS ASSOCIATED WITH GPR55 RECEPTOR” (Cerevance, Inc., priority 2022, published 2025).

One assay deals with T1, human GPR55 (Homo sapiens, UniProt Q9Y2T6).
T1 construct: expressed in transfected cells; host or cells: HEK293 (human embryonic kidney) cells
In words: Ca2+ mobilization assay (FLIPR, Calcium5 dye), human GPR55. It counts as cell-based. Particulars: HEK293 cells co-expressing PK-tagged human GPR55 and EA-tagged beta-arrestin; intracellular calcium increase. The protocol: (§1) This cell-based assay measures the ability of compounds to activate the GPR55 receptor by measuring changes in intracellular calcium levels. HEK293 (human embryonic kidney) cells co-expressing recombinant ProLink (PK) tagged human or rat GPR55 and Enzyme Acceptor (EA) tagged beta-arrestin were seeded into PDL-coated, black-walled clear-bottom 384 well plates in assay buffer (25 mM HEPES, HBSS, 1 mM Probenicid, 0.1% BSA, pH 7.4) containing Calcium5 dye (Molecular Devices). Cells were incubated in suspension with the Calcium5 dye for 1 hour at 37° C., 5% CO2. Dilution series of the compounds in assay buffer were added to the cells in duplicate wells and compound-mediated real-time increases in intracellular calcium concentration were recorded as increased fluorescence using the Molecular Devices FLIPR instrument. Kinetic traces were reduced to a numerical value by subtracting the minimum response from the maximum response.
(A change in cytosolic calcium serves as a functional read-out for many receptors and channels.)

The next assay concerns the target T2, rat GPR55 (Rattus norvegicus, UniProt F1MAK4).
T2 construct: expressed in transfected cells; host or cells: HEK293 (human embryonic kidney) cells
T2 sequence (F1MAK4 1-319): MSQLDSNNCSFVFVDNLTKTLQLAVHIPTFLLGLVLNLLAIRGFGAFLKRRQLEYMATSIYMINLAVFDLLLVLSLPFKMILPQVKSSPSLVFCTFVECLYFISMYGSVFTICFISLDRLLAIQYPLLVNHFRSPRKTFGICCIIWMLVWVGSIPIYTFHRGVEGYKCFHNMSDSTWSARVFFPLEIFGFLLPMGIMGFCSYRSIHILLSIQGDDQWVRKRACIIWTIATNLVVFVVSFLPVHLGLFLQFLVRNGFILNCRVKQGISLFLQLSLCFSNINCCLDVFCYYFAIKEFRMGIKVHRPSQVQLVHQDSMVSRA
In words: Ca2+ mobilization assay (FLIPR, Calcium5 dye), rat GPR55. It is filed as cell-based. As to conditions: HEK293 cells co-expressing PK-tagged rat GPR55 and EA-tagged beta-arrestin; intracellular calcium increase. Here is the method:
as §1

pEC50: −log10 of the molar value.

The pEC50 is the negative decadic logarithm of the EC50, by convention in mol/L.

T1 sequence (Q9Y2T6 whole entry): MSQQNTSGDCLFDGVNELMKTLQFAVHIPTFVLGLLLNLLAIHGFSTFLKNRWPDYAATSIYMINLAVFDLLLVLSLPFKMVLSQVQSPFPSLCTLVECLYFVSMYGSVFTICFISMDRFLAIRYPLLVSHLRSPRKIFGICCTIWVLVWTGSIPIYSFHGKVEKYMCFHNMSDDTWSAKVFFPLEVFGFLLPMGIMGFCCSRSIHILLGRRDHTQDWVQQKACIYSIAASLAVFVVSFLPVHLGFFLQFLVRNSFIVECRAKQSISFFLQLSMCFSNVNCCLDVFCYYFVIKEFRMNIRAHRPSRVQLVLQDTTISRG

As for `CC(O)c1cncc(-c2ccc(N[C@H](C)c3ccc(F)cc3)nc2)c1` (single isomer, unassigned) [Example 16b], the pEC50 on human GPR55 was not below 7.30; at rat GPR55, not below 6.70.

Regarding `C[C@@H](Nc1ccc(-c2ccc3[nH]c(=O)oc3c2)cn1)c1ccc(F)cc1` [Example 61, (R)-6-(6-((1-(4-fluorophenyl)ethyl)amino)pyridin-3-yl)benzo[d]oxazol-2(3H)-one], the results for the negative logarithm of the EC50 (pEC50) at human GPR55 and on rat GPR55 were not below 6.00 and not below 5.30, respectively.

On to `CC(Nc1ncc(-c2ccc3oc(=O)n(C)c3c2)nn1)c1ccc(Cl)c(Cl)c1` (single isomer, unassigned) [Example 78a, 5-(3-((1-(3,4-dichlorophenyl)ethyl)amino)-1,2,4-triazin-6-yl)-3-methylbenzo[d]oxazol-2(3H)-one], for which the negative logarithm of the EC50 (pEC50) at human GPR55 and on rat GPR55 was not below 6.00 in each case.

Consider `CC(O)c1cncc(-c2ccc(N[C@H](C)c3ccc(F)cc3)nc2)c1` (single isomer, unassigned) [Example 16a], for which the pEC50 was not below 6.00 on human GPR55 and not below 7.30 at rat GPR55.

With `C[C@@H](Nc1ncc(-c2cncc(CO)c2)nn1)c1ccc(F)cc1` [Example 41, (R)-(5-(3-((1-(4-fluorophenyl)ethyl)amino)-1,2,4-triazin-6-yl)pyridin-3-yl)methanol], the pEC50 on human GPR55 is not below 6.70; at rat GPR55, not below 6.00.

Take `Cc1cncc(-c2ccc(NC(C)c3ccc(Cl)cc3)nc2)c1` (single isomer, unassigned) [Example 46a, N-(1-(4-chlorophenyl)ethyl)-5′-methyl-[3,3′-bipyridin]-6-amine]: the pEC50 on human GPR55 is not below 6.00; on rat GPR55, not below 6.70.

Take `C[C@@H](Nc1cnc(-c2cncc(CCO)c2)cn1)c1ccc(F)cc1` [Example 35, (R)-2-(5-(5-((1-(4-fluorophenyl)ethyl)amino)pyrazin-2-yl)pyridin-3-yl)ethan-1-ol]: the pEC50 is not below 7.30 at human GPR55 and not below 5.30 on rat GPR55.

In the case of `C[C@@H](Nc1ncc(-c2ccc3oc(=O)n(CCN(C)C)c3c2)nn1)c1ccc(F)cc1` [Example 71, (R)-3-(2-(dimethylamino)ethyl)-5-(3-((1-(4-fluorophenyl)ethyl)amino)-1,2,4-triazin-6-yl)benzo[d]oxazol-2(3H)-one], the negative-log EC50 (pEC50) on human GPR55 is not below 6.00; at rat GPR55, not below 5.30.

Regarding `CCn1c(=O)oc2ccc(-c3cnc(N[C@H](C)c4ccc(F)cc4)nn3)cc21` [Example 67, (R)-3-ethyl-5-(3-((1-(4-fluorophenyl)ethyl)amino)-1,2,4-triazin-6-yl)benzo[d]oxazol-2(3H)-one], the pEC50 is not below 6.70 on human GPR55 and not below 6.00 on rat GPR55.

As to `C[C@@H](Nc1ncc(-c2cncc(S(C)(=O)=O)c2)nn1)c1ccc(F)cc1` [Example 28, (R)-N-(1-(4-fluorophenyl)ethyl)-6-(5-(methylsulfonyl)pyridin-3-yl)-1,2,4-triazin-3-amine], the pEC50 at human GPR55 is not below 7.30; on rat GPR55, not below 6.00.

On to `C[C@@H](Nc1cnc(-c2cncc(C(O)C(F)F)c2)cn1)c1ccc(F)cc1` (single isomer, unassigned) [Example 54b], for which the pEC50 on human GPR55 and on rat GPR55 was not below 6.00 each time.

Consider `C=Cc1cc(-c2cnc(N[C@H](C)c3ccc(F)cc3)cn2)cnn1` [Example 44, (R)-N-(1-(4-fluorophenyl)ethyl)-5-(6-vinylpyridazin-4-yl)pyrazin-2-amine], for which the pEC50 was not below 6.00 on human GPR55 and not below 5.30 on rat GPR55.

Take `C[C@@H](Nc1ncc(-c2cncc(S(C)(=O)=O)c2)cn1)c1ccc(F)cc1` [Example 25, (R)-N-(1-(4-fluorophenyl)ethyl)-5-(5-(methylsulfonyl)pyridin-3-yl)pyrimidin-2-amine]: at rat GPR55, the negative-log EC50 (pEC50) is not below 5.30.

For `C[C@@H](Nc1cnc(-c2cncc(CC(F)(F)F)c2)nn1)c1ccc(F)cc1` [Example 56, (R)-N-(1-(4-fluorophenyl)ethyl)-3-(5-(2,2,2-trifluoroethyl)pyridin-3-yl)-1,2,4-triazin-6-amine], the values for the negative logarithm of the EC50 (pEC50) on human GPR55 and at rat GPR55 were not below 6.00 and not below 5.30, respectively.

In the case of `CN=S(C)(=O)c1cncc(-c2ccc(N[C@H](C)c3ccc(F)cc3)nc2)c1` (single isomer, unassigned) [Example 30a], the pEC50 on rat GPR55 was not below 7.30.

With `C[C@@H](Nc1ccc(-c2ccc3oc(=O)n(C)c3c2)cn1)c1ccc(F)cc1` [Example 60, (R)-5-(6-((1-(4-fluorophenyl)ethyl)amino)pyridin-3-yl)-3-methylbenzo[d]oxazol-2(3H)-one], at rat GPR55, the pEC50 was not below 6.00.

As to `C[C@@H](Nc1cnc(-c2cncc(CC(F)(F)F)c2)cn1)c1ccc(F)cc1` [Example 53, (R)-N-(1-(4-fluorophenyl)ethyl)-5-(5-(2,2,2-trifluoroethyl)pyridin-3-yl)pyrazin-2-amine], the pEC50 at rat GPR55 was not below 5.30.

`Cc1cncc(-c2ccc(NC(C)c3ccc(F)cc3)nc2)c1` (centres unmarked) [Example 1, N-(1-(4-fluorophenyl)ethyl)-5′-methyl-[3,3′-bipyridin]-6-amine]: the pEC50 at rat GPR55 is not below 5.30.

In the case of `C[C@@H](Nc1ccc(-c2cncc(S(C)(=N)=O)c2)cn1)c1ccc(F)cc1` (single isomer, unassigned) [Example 27a], the pEC50 on rat GPR55 was not below 6.70.

As for `C[C@@H](Nc1ccc(-c2cncc(S(C)(=N)=O)c2)cn1)c1ccc(F)cc1` (single isomer, unassigned) [Example 27b], the negative logarithm of the EC50 (pEC50) at rat GPR55 was not below 6.00.

Turning to `C[C@@H](Nc1ncc(-c2ccc3oc(=O)n(C)c3c2)nn1)c1ccc(F)cc1` [Example 64, (R)-5-(3-((1-(4-fluorophenyl)ethyl)amino)-1,2,4-triazin-6-yl)-3-methylbenzo[d]oxazol-2(3H)-one], the pEC50 at rat GPR55 is not below 6.70.

Regarding `CN=S(C)(=O)c1cncc(-c2ccc(N[C@H](C)c3ccc(F)cc3)nc2)c1` (mixture of isomers) [Example 30, (6′-(((R)-1-(4-fluorophenyl)ethyl)amino)-[3,3′-bipyridin]-5-yl)(methyl)(methylimino)-λ6-sulfanone], on rat GPR55, the negative-log EC50 (pEC50) is not below 7.30.

For `CCc1cncc(-c2ccc(N[C@H](C)c3ccc(F)cc3)nc2)c1` [Example 4, (R)-5′-ethyl-N-(1-(4-fluorophenyl)ethyl)-[3,3′-bipyridin]-6-amine], the pEC50 at rat GPR55 was not below 6.00.

Take `Cc1cncc(-c2ccc(N[C@H](C)c3ccc(F)cc3)nc2)c1` [Example 3, (R)-N-(1-(4-fluorophenyl)ethyl)-5′-methyl-[3,3′-bipyridin]-6-amine]: the pEC50 at rat GPR55 was not below 7.30.

In the case of `C[C@@H](Nc1ccc(-c2cncc(C(F)(F)F)c2)cn1)c1ccc(F)cc1` [Example 8, (R)-N-(1-(4-fluorophenyl)ethyl)-5′-(trifluoromethyl)-[3,3′-bipyridin]-6-amine], on rat GPR55, the pEC50 was not below 7.30.

Consider `C[C@@H](Nc1ccc(-c2cncc(S(C)(=N)=O)c2)cn1)c1ccc(F)cc1` (mixture of isomers) [Example 27, (6′-(((R)-1-(4-fluorophenyl)ethyl)amino)-[3,3′-bipyridin]-5-yl)(imino)(methyl)-λ^6-sulfanone], for which the pEC50 at rat GPR55 is not below 7.30.

As for `CN=S(C)(=O)c1cncc(-c2ccc(N[C@H](C)c3ccc(F)cc3)nc2)c1` (single isomer, unassigned) [Example 30b], the pEC50 at rat GPR55 is not below 6.00.

In the case of `C[C@@H](Nc1ncc(-c2cncc(CC(F)(F)F)c2)nn1)c1ccc(F)cc1` [Example 55, (R)-N-(1-(4-fluorophenyl)ethyl)-6-(5-(2,2,2-trifluoroethyl)pyridin-3-yl)-1,2,4-triazin-3-amine], the pEC50 on rat GPR55 is not below 5.30.
